ChEMBL document CHEMBL1159306, “Juncenolide A, a new briarane from the Taiwanese Gorgonian Junceella juncea” (J Nat Prod, 2002)
In brackets after ≈: the same amount, converted by molar mass.

Columns and labels:
[1] = Cytotoxicity against human DLD cells; format: functional, cell-based
[2] = Cytotoxicity against human KB16 cells; format: functional, cell-based

Structure (SMILES): C=C1CC[C@H](OC(=O)C(C)C)[C@@]2(C)[C@@H](OC(C)=O)CC[C@@]3(CO3)[C@@H]2[C@H](OC(C)=O)[C@]2(O)[C@@H](C)C(=O)O[C@H]2[C@H]1Cl [JUNCENOLIDE A]
- IC50 [1]: 3.4 µg/mL (≈ 5.95 µM)
- IC50 [2]: 5.9 µg/mL (≈ 10.3 µM)
